Series [1] relates to SK-MEL-2. In words: Antiproliferative activity against human SK-MEL-2 cells at 10 to 1000 uM assessed as decrease in cell viability. The series is classed as functional, cell-based. As to conditions: dose 10-1000 µM.
For series [2], the system named is UACC-257. As to the kind of experiment: Antiproliferative activity against doxycycline-induced NGLY1 knocked down human UACC-257 cells at 20 uM in presence of dacarbazine assessed as decrease in growth inhibition after 72 hrs by MTT assay. The series is classed as functional, cell-based. A general note: Tetrazolium assays rely on reduction of a dye to a coloured formazan, in cell work by metabolically active cells.

The nature of series [3]: Antiproliferative activity against human HDF51 cells at 10 to 1000 uM assessed as decrease in cell viability. The series is classed as toxicity, cell-based. The settings on record: hdf51, 1000 µM, dose 10-1000 µM.
Series [4] deals with UACC-257. In words: Antiproliferative activity against human UACC-257 cells at 10 to 1000 uM assessed as decrease in cell viability. As to conditions: dose 10-1000 µM. It counts as functional, cell-based.
Series [5] in a line: Antiproliferative activity against human HDF418 cells at 10 to 1000 uM assessed as decrease in cell viability. It counts as toxicity, cell-based. As to conditions: hdf418, 1000 µM, dose 10-1000 µM.
Series [6] addresses T1, Peptide-N(4)-(N-acetyl-beta-glucosaminyl)asparagine amidase (Homo sapiens) (UniProt Q96IV0).
T1 sequence (whole entry): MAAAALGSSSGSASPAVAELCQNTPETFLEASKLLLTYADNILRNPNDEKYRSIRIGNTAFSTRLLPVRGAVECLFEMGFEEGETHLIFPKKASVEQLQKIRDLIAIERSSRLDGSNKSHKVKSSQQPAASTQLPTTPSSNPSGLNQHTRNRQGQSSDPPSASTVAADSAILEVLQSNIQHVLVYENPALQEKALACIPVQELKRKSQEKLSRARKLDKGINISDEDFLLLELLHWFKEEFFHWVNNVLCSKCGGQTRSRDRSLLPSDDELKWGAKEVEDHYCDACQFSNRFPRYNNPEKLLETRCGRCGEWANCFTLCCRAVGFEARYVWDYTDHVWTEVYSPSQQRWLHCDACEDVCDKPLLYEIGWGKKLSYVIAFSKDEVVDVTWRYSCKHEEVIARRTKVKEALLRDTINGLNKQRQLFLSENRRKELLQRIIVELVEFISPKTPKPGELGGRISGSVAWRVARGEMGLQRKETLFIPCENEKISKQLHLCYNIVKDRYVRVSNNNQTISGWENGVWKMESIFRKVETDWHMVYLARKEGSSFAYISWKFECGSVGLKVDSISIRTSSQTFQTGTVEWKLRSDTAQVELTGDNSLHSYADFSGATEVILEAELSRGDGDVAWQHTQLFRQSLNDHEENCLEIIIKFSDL
In words: Inhibition of NGLY1 in human HEK293T cells at 200 uM assessed as retention of N-glycans on full-length NFE2L1 measured by electrophoretic mobility shift assay. The series is classed as cell-based. A general note: A gel shift assay detects complexes by their altered migration in electrophoresis.

Series [7] concerns the target T1, Peptide-N(4)-(N-acetyl-beta-glucosaminyl)asparagine amidase (Homo sapiens). In words: Inhibition of NGLY1 in human UACC-257 cells at 200 uM assessed as increase in IL-29 production measured after 48 hrs. It counts as cell-based.
Series [8] shares this target. As to the kind of experiment: Inhibition of NGLY1 in human SK-MEL-2 cells at 200 uM assessed as increase in IFN-beta1 production measured after 48 hrs. It counts as cell-based.
Series [9] has as its system SK-MEL-2. As to the kind of experiment: Antiproliferative activity against human SK-MEL-2 cells assessed as decrease in cell viability in presence of bortezomib. The series is classed as functional, cell-based.
In series [10] the target is T1, Peptide-N(4)-(N-acetyl-beta-glucosaminyl)asparagine amidase (Homo sapiens). In words: Inhibition of NGLY1 in human UACC-257 cells at 200 uM assessed as increase in IFN-beta1 production measured after 48 hrs. The series is classed as cell-based.
For series [11] the target is unchanged. As to the kind of experiment: Inhibition of NGLY1 in human SK-MEL-2 cells at 200 uM assessed as increase in IL-29 production measured after 48 hrs. It counts as cell-based.
In series [12] the test system is Malme-3M. In words: Antiproliferative activity against doxycycline-induced NGLY1 knocked down human Malme-3M cells at 20 uM in presence of dacarbazine assessed as decrease in growth inhibition after 72 hrs by MTT assay. It counts as functional, cell-based.
Series [13] has as its target T1, Peptide-N(4)-(N-acetyl-beta-glucosaminyl)asparagine amidase (Homo sapiens). As to the kind of experiment: Inhibition of NGLY1 in human HDF51 cells at 200 uM assessed as increase in IFN-beta1 production measured after 48 hrs. It counts as cell-based.
The target is the same in series [14]. As to the kind of experiment: Inhibition of NGLY1 in human HDF51 cells at 200 uM assessed as increase in IL-29 production measured after 48 hrs. The series is classed as cell-based.
The subject of series [15] is SK-MEL-2. As to the kind of experiment: Antiproliferative activity against human SK-MEL-2 cells assessed as decrease in cell viability in presence of dacarbazine. The series is classed as functional, cell-based.

The source made the active and inactive calls. No cut-off for these calls is given here.

For `CCCNC(=O)[C@H](CC(=O)N[C@@H]1O[C@H](COC(C)=O)[C@@H](OC(C)=O)[C@H](OC(C)=O)[C@H]1NC(C)=O)NC(=O)/C=C/CN(C)C`, the result in series [1], in series [2] and in [4] was Active. The Activity entry in [3] and in [5] was “Non-Toxic” in each case.
In the case of `CCCNC(=O)[C@H](CC(=O)N[C@@H]1O[C@H](COC(C)=O)[C@@H](OC(C)=O)[C@H](OC(C)=O)[C@H]1NC(C)=O)NC(=O)CCl`, the outcome in series [1], in series [2], in series [7], in series [8], in series [9] and in series [10] was Active. In addition, the result in series [11], in series [4] and in [12] was Active. The inhibition entry in [6] was “Active”. The Activity entry in series [3] and in series [5] was “Non-Toxic” each time.
`C=CS(=O)(=O)N[C@@H](CC(=O)N[C@@H]1O[C@H](COC(C)=O)[C@@H](OC(C)=O)[C@H](OC(C)=O)[C@H]1NC(C)=O)C(=O)NCCC`: the outcome in [1], in series [2], in series [7], in series [8], in [10] and in series [11] was Active. Further, the result in [4] was Active. Moreover, the Activity result in [3] and in series [5] was “Non-Toxic” each time. The result in [13] and in series [14] was inactive.
On to `C=CC(=O)N[C@@H](CC(=O)N[C@@H]1O[C@H](COC(C)=O)[C@@H](OC(C)=O)[C@H](OC(C)=O)[C@H]1NC(C)=O)C(=O)NCCC`, for which the outcome in series [1], in series [2], in [7], in [8], in series [15] and in [10] was Active. Moreover, the outcome in series [11] and in series [4] was Active. For the same molecule, the Activity entry in series [3] and in series [5] was “Non-Toxic” in each case. Moreover, the result in series [13] and in series [14] was inactive.

The record behind these values is ChEMBL document CHEMBL5052832, “Inhibition of ngly1 for the treatment of cancer” (2021).
